We go through one compound from publication PMC11649914, “Transport mechanism of DgoT, a bacterial homolog of SLC17 organic anion transporters” (The EMBO Journal, 2024).

Holding throughout (test): SSM electrophysiology, kobs of pre-steady state current vs concentration
What all share (type): biochemical

The target of assay [1] is T1, DgoT (Escherichia coli, UniProt A0A0H2Z574, D46N).
T1 sequence (A0A0H2Z574 1-445 D46N): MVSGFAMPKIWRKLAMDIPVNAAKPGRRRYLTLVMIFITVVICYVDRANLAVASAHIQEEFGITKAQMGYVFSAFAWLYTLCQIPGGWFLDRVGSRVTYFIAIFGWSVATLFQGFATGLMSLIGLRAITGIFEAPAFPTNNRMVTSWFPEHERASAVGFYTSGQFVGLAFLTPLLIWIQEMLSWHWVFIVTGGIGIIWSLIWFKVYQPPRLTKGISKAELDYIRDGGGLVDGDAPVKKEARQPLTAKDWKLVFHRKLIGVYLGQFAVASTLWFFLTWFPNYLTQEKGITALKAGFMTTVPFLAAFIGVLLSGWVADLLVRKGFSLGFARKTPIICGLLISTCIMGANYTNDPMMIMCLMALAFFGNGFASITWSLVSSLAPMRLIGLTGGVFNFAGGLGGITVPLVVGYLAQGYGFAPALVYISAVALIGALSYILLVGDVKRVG
An excerpt: (§1) SSM electrophysiology, kobs of pre-steady state current vs concentration on DgoT

Assay [2] concerns the target T2, DgoT (Escherichia coli, UniProt A0A0H2Z574).
T2 sequence (A0A0H2Z574 1-445): T1 sequence (A0A0H2Z574 1-445 D46N)
Description: as §1

Assay [3] has as its target T3, DgoT (Escherichia coli, UniProt A0A0H2Z574, E133Q).
T3 sequence (A0A0H2Z574 1-445 E133Q): T1 sequence (A0A0H2Z574 1-445 D46N)
Description: as §1

For assay [4], the target named is T4, DgoT (Escherichia coli, UniProt A0A0H2Z574, R126Q).
T4 sequence (A0A0H2Z574 1-445 R126Q): T1 sequence (A0A0H2Z574 1-445 D46N)
Description: as §1

pKd: −log10 of the molar value.

As for `O=C(O)[C@H](O)[C@@H](O)[C@@H](O)[C@H](O)CO` [D-galactonate], the pKd – broadly, the Kd on a negative log10 scale, so that one unit is a factor of ten – at DgoT [1] is 1.96; on DgoT [2], 1.82; on DgoT [3], 1.82; on DgoT [4] it was 1.66.
